Measurements taken from article PMC2424174, “Suppression of Tumor Growth and Angiogenesis by a Specific Antagonist of the Cell-Surface Expressed Nucleolin” (PLoS ONE, 2008).

Tests used:
MDA-MB-231 cells [1] = assay: HB-19 entry in MDA-MB-231 cells, immunofluorescence; format: cell-based, human; details: 5 µM HB-19/Btn, 1 hour
MDA-MB-231 cells [2] = assay: Colony formation in soft agar, MDA-MB-231; format: cell-based, human
Procedure: (§1) Figure 4 HB-19 inhibits colony formation in soft agar by tumor cell lines. (A) MDA-MB-231 cells in culture medium were seeded in triplicate in the absence (histogram C) or presence of 0.1, 0.5 and 1 of µM HB-19, or 0.1 µM of the anti-nucleolin mAb MS-3 or control IgG, or 10 µM bisphosphonate (BisP). (B) Various tumor cell lines (as indicated) in culture medium were seeded in triplicate in the absence (histogram Control) or presence of 5 µM HB-19. After 10–21 days, colonies with diameters greater than 50 µm were scored as positive. Statistical significance: *0.01<p<[…], **p<0.01, ***p<0.001.
(§2) Carcinoma cells (2×10^4) were mixed in 0.35% top agar, diluted in complete medium (DMEM containing 10% FBS) in the absence or presence of HB-19, and plated onto 0.8% bottom agar into 12-well plates. Cells were treated twice a week during 10 to 21 days. Colonies with diameters greater than 50 µm were scored as positive using a phase contrast microscope equipped with a measuring grid at magnification 100× [45]. The number of colonies was determined by analyzing 5 fields/well from 3 wells and the test was repeated at least twice.

B16 cells = assay: Colony formation in soft agar, B16; format: cell-based, mouse; details: 5 µM HB-19, B16
Procedure: as §1, §2

ERK1/2 = assay: Serum-induced phosphorylation of ERK1/2; format: cell-based, human; details: 2, 5 and 10 µM HB-19; 5 min after 10% FBS
Procedure: Figure 5 Cell cycle perturbations induced by HB-19 treatment. (A) Analysis of cell cycle parameters in HB-19 treated cells. MDA-MB-231 cells were cultured for 48 hours in medium without FBS (starvation) or in medium containing 10% FBS supplemented or not with 10 µM HB-19. DNA synthesis was quantified after BrdU incorporation and staining with anti-BrdU antibody and 7-AAD, by FACScan analysis. The histograms indicate the relative amount of cells in G1, S and G2/M cell phases. […] Serum starved MDA-MB-231 cells were stimulated with 10% FBS in the absence or presence of 2, 5, and 10 µM of HB-19. Five minutes after serum stimulation, cells were lysed directly in electrophoresis sample buffer and processed for immunoblotting using anti-phospho-p42/44 ERK1/2 and anti-p42/44 ERK antibodies. NS stands for non-stimulated cells.

Swiss mice = assay: Mouse Matrigel plug angiogenesis assay; format: in vivo; details: endothelial-cell infiltration, n = 5 mice
Procedure: Figure 6 Inhibition of in vitro and in vivo angiogenesis by HB-19. (A) HB-19 inhibits proliferation of HUVECs. Twenty-four hours after seeding HUVECs in 2% FBS, cells were stimulated by 0.25 nM VEGF165, in the absence or presence of 1 µM HB-19 or 0.1 µM anti-nucleolin mAb MS-3 as indicated. After 72 h, cell number was determined by crystal violet staining. The data are reported as the mean of triplicate samples. (B) HB-19 inhibits migration of HUVECs. Cell migration was studied using a modified Boyden chamber. Cells were incubated (4 h at 37°C) with VEGF165, HB-19, or anti-nucleolin mAb MS-3 as above. Cells that migrated through the pore to the lower filter surface were counted and are shown as number per microscopic field at ×100 magnification. The data are the mean of three independent high-power fields/well performed in duplicate in two independent experiments. […] Aortic endothelial (ABAE) cells in the absence or presence of 3 nM PTN, 0.5 nM VEGF165, and 3 nM FGF-2 were seeded on a three-dimensional collagen gel in complete medium. […] Tubular network structures were quantified using phase contrast microscopy (×100). […] Quantification of endothelial cell invasion into the Matrigel was determined and is expressed as a mean of five fields per section from 3 Matrigel-plug sections per mouse. The results are expressed as the mean of five mice per group. […]

[3] = cited from earlier work
Description: HB-19 treatment is not toxic in vitro and in vivo. The lack of translocation of HB-19 to the nucleus and nucleolus probably accounts for its lack of toxicity in cultured cells and in mice, since nuclear nucleolin is involved in many aspects of gene expression, [2]. […] In s ...

athymic nude mice = assay: Toxicity observations in treated nude mice; details: HB-19, 3 times per week; data not shown

pseudo-tripeptide Lysψ(CH2N)-Pro-Arg coupled to a template (H2NLys-Lys-Lys-Gly-Pro-Lys-Glu-Lys-AhxCONH2) [HB-19]
internalization and subcellular localization (MDA-MB-231 cells [1]; 37°C): internalized and is concentrated in the cytoplasm without translocation into the nucleus | internalization at 20°C (MDA-MB-231 cells [1]; 20°C): remains attached to the cell surface without entering the cytoplasm | reduction of colony-forming capacity (MDA-MB-231 cells [2]; 1 µM HB-19, triplicate, colonies >50 µm, 10–21 days): 50% | colony formation (MDA-MB-231 cells [2]; 5 µM HB-19, MDA-MB-231): reduced markedly | reduction of colony-forming capacity (MDA-MB-231 cells [2]; HB-19 0.1, 0.5 and 1 µM, anti-nucleolin mAb MS-3 0.1 µM): reduced significantly | colony formation (B16 cells): reduced markedly | serum-stimulated ERK1/ERK2 phosphorylation (ERK1/2): prevents enhanced phosphorylation of ERK1/ERK2 | inhibition of PTN induced angiogenesis (Swiss mice; 1 µM HB-19, 5 nM PTN): significantly inhibited the ex vivo angiogenesis | inhibition of FGF-2 induced angiogenesis (Swiss mice; 1 µM HB-19, 10 nM FGF-2): significantly inhibited the ex vivo angiogenesis | recovery in bone marrow ([3]; a few minutes following intravenous injection): a significant proportion of the peptide is recovered in the bone marrow | tissue uptake [3]: there is a threshold for the tissue uptake of HB-19 | persistence in tissue ([3]; rats, 24 hours): a significant proportion still persists even after 24 hours in its active form | blood clearance ([3]; rats, systemic administration): rapidly cleared from blood | tissue distribution ([3]; rats, systemic administration): distributed selectively in tissues expressing enhanced levels of surface nucleolin | form of excreted radioactivity in urine ([3]; rats): most of the excreted radioactivity in the urine is in the form of HB-19 metabolites | route of elimination ([3]; rats): eliminated gradually by renal glomerular filtration | evidence of toxicity (athymic nude mice): nor induced any evidence of toxicity such as diarrhea, infection, weakness, or lethargy
